Here are results for 51 compounds from US8399480B2, “Hydroxymethyl pyrrolidines as beta 3 adrenergic receptor agonists” (Merck Sharp & Dohme Corp., priority 2008, dated 2013).

T1 sequence (P13945 whole entry): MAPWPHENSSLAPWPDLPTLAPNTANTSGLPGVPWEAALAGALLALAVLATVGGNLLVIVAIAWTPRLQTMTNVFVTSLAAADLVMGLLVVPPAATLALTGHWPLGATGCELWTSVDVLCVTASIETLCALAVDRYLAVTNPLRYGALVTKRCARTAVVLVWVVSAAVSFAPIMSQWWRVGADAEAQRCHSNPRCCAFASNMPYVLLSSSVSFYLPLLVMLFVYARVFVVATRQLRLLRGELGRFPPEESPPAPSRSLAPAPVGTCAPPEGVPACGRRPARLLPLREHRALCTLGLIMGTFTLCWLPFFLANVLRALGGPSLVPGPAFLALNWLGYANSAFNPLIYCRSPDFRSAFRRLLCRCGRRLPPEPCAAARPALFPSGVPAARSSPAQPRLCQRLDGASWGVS

The first experiment concerns the target T1, human β3 adrenergic receptor (Homo sapiens, UniProt P13945).
T1 construct: expressed in transfected cells; host or cells: Chinese hamster ovary (CHO) cells, stably transfected
As to the kind of experiment: Functional assay: cAMP production (LANCE TR-FRET) in CHO cells stably transfected with cloned β3 adrenergic receptor. It is filed as cell-based. Conditions: Table 4; human β3 functional activity; read-out: Human β Binding. The method, then:
Chinese hamster ovary (CHO) cells, stably transfected with the cloned β-adrenergic receptor (β1, β2 or β3) are harvested after 3 days of subculturing. Harvesting of cells is done with Enzyme-free Dissociation Media (Specialty Media). Cells are then counted and resuspended in assay buffer (Hank's Balanced salt solution supplemented with 5 mM HEPES, 0.1% BSA) containing a phosphodiesterase inhibitor (IBMX, 0.6 mM). The reaction is initiated by mixing 6,000 cells in 6 μL with 6 μL Alexa Fluor labeled cAMP antibody (LANCE™ kit) which is then added to an assay well containing 12 μL of compound (diluted in assay buffer to 2× final concentration). The reaction proceeds for 30 min at room temperature and is terminated by the addition of 24 μL detection buffer (LANCE™ kit). The assay plate is then incubated for 1 h at room temperature and time-resolved fluorescence measured on a Perkin Elmer Envision reader or equivalent. The unknown cAMP level is determined by comparing fluorescence levels to a cAMP standard curve.
The non-selective, full agonist β-adrenergic ligand isoproterenol is used at all three receptors to determine maximal stimulation. […] Data are analyzed using Microsoft Excel and Graphpad Prism or an internally developed data analysis software package.
With `O=C(Nc1ccc(C[C@@H]2CC[C@H]([C@H](O)c3ccccc3)N2)cc1)c1ccccc1-c1ncc[nH]1` [Example 12], the EC50 is 11 to 100 nM.
For `O=C(Cc1cccc(F)c1F)Nc1ccc(C[C@@H]2CC[C@H]([C@H](O)c3ccccc3)N2)cc1` [Example 72], the EC50 lay within 11 to 100 nM.
Still for that read-out and setting: for `O=C(Nc1ccc(C[C@@H]2CC[C@H]([C@H](O)c3ccccc3)N2)cc1)c1ccccc1-n1nccn1` [Example 11] the value was 11 to 100 nM; for `O=C(Cc1ncccn1)Nc1ccc(C[C@@H]2CC[C@H]([C@H](O)c3ccccc3)N2)cc1` [Example 46], 11 to 100 nM.
The same measure, in the same setting: in the case of `O=C(Nc1ccc(C[C@@H]2CC[C@H]([C@H](O)c3ccccc3)N2)cc1)c1ccccc1-c1nnn[nH]1` [Example 13] it was 11 to 100 nM.
On the same count and under the same terms, in the case of `O=C(Cn1[nH]c(=O)c2ccccc2c1=O)Nc1ccc(C[C@@H]2CC[C@H]([C@H](O)c3ccccc3)N2)cc1` [Example 53] it was 1 to 10 nM; in that of `CC1=NN(CC(=O)Nc2ccc(C[C@@H]3CC[C@H]([C@H](O)c4ccccc4)N3)cc2)C(=O)C1` [Example 83], 11 to 100 nM; in that of `O=C(CN1CCSC1=O)Nc1ccc(C[C@@H]2CC[C@H]([C@H](O)c3ccccc3)N2)cc1` [Example 91], 1 to 10 nM.
Turning to `O=C(Nc1ccc(C[C@@H]2CC[C@H]([C@H](O)c3ccccc3)N2)cc1)C1CCCN1c1nccs1` (stereo partly drawn) [Example 41], the EC50 is 1 to 10 nM.
The same measure, in the same setting: for `O=C(Cc1nnc(Cc2ccccc2)[nH]1)Nc1ccc(C[C@@H]2CC[C@H]([C@H](O)c3ccccc3)N2)cc1` [Example 33] the value was 11 to 100 nM; for `O=C(Nc1ccc(C[C@@H]2CC[C@H]([C@H](O)c3ccccc3)N2)cc1)c1ccccc1CCc1ccccc1` [Example 30], 101 to 1000 nM.
Same read-out and setting: for `Cc1ccc(OCC(=O)Nc2ccc(C[C@@H]3CC[C@H]([C@H](O)c4ccccc4)N3)cc2)nn1` [Example 95] the value was 11 to 100 nM; for `O=C(Cn1ccncc1=O)Nc1ccc(C[C@@H]2CC[C@H]([C@H](O)c3ccccc3)N2)cc1` [Example 67], 11 to 100 nM; for `Cn1nnnc1CC(=O)Nc1ccc(C[C@@H]2CC[C@H]([C@H](O)c3ccccc3)N2)cc1` [Example 76], 11 to 100 nM.
`O=C(Cc1nnc(-c2cc(Cl)cc(Cl)c2)[nH]1)Nc1ccc(C[C@@H]2CC[C@H]([C@H](O)c3ccccc3)N2)cc1` [Example 26]: the EC50 is 101 to 1000 nM.
Regarding `O=C(Cn1nnnc1-c1ccc(F)cc1)Nc1ccc(C[C@@H]2CC[C@H]([C@H](O)c3ccccc3)N2)cc1` [Example 29], the EC50 lay within 11 to 100 nM.
On the same count and under the same terms, in the case of `Cn1nccc1-c1nnc(CC(=O)Nc2ccc(C[C@@H]3CC[C@H]([C@H](O)c4ccccc4)N3)cc2)[nH]1` [Example 28] it was 11 to 100 nM; in that of `Cc1nn(CC(=O)Nc2ccc(C[C@@H]3CC[C@H]([C@H](O)c4ccccc4)N3)cc2)c(=O)c2ccccc12` [Example 15], 1 to 10 nM; in that of `COc1cccc(N2CCCC2C(=O)Nc2ccc(C[C@@H]3CC[C@H]([C@H](O)c4ccccc4)N3)cc2)c1` (stereo partly drawn) [Example 36], 1 to 10 nM.
Same read-out and setting: in the case of `Cc1nnc(CC(=O)Nc2ccc(C[C@@H]3CC[C@H]([C@H](O)c4ccccc4)N3)cc2)[nH]1` [Example 21] it was 11 to 100 nM.

The experiment is the same for the next values; noted with them: Table 5; read-out: Human β3 Functional.
For the compound `O=C(O)c1nc2c(s1)CCC2C(=O)Nc1ccc(C[C@@H]2CC[C@H]([C@H](O)c3ccccc3)N2)cc1` (single isomer, unassigned) [Example 143], the EC50 is 11 to 100 nM.
The same measure, in the same setting: in the case of `CC(C(=O)Nc1ccc(C[C@@H]2CC[C@H]([C@H](O)c3ccccc3)N2)cc1)n1cnc2ccccc2c1=O` (single isomer, unassigned) [Example 167] it was less than 1 nM; in that of `O=C(Nc1ccc(C[C@@H]2CC[C@H]([C@H](O)c3ccccc3)N2)cc1)C1CCc2sc(-c3ccc(F)cc3)nc21` (single isomer, unassigned) [Example 122], 101 to 1000 nM.
The same measure, in the same setting: for `O=C(Nc1ccc(CC2CCC(C(O)c3ccccc3)N2)cc1)C1Cc2ccccc2C1` (stereo not drawn) [Example 106] the value was 11 to 100 nM; for `C[C@H](C(=O)Nc1ccc(C[C@@H]2CC[C@H]([C@H](O)c3ccccc3)N2)cc1)c1csc(N)n1` [Example 105], less than 1 nM.
As for `Cc1noc2c1CCC2C(=O)Nc1ccc(C[C@@H]2CC[C@H]([C@H](O)c3ccccc3)N2)cc1` (single isomer, unassigned) [Example 141], the EC50 was 1 to 10 nM.
On to `O=C(Nc1ccc(C[C@@H]2CC[C@H]([C@H](O)c3ccccc3)N2)cc1)C1CCCc2ccccc21` (single isomer, unassigned) [Example 112], for which the EC50 lay within 11 to 100 nM.
Same read-out and setting: in the case of `CC(C(=O)Nc1ccc(C[C@@H]2CC[C@H]([C@H](O)c3ccccc3)N2)cc1)n1nncc1C(=O)O` (single isomer, unassigned) [Example 197] it was 1 to 10 nM.
On the same count and under the same terms, for `CC(C(=O)Nc1ccc(CC2CCC(C(O)c3ccccc3)N2)cc1)c1ccn(C)n1` (single isomer, unassigned) [Example 187] the value was 1 to 10 nM; for `CC(Oc1cccnn1)C(=O)Nc1ccc(C[C@@H]2CC[C@H]([C@H](O)c3ccccc3)N2)cc1` (single isomer, unassigned) [Example 214], 101 to 1000 nM; for `CC(C(=O)Nc1ccc(C[C@@H]2CC[C@H]([C@H](O)c3ccccc3)N2)cc1)n1ccnn1` (single isomer, unassigned) [Example 183], 1 to 10 nM.
Still for that read-out and setting: in the case of `Cc1n[nH]c2c1CCC2C(=O)Nc1ccc(C[C@@H]2CC[C@H]([C@H](O)c3ccccc3)N2)cc1` (single isomer, unassigned) [Example 138] it was 11 to 100 nM; in that of `O=C(Nc1ccc(C[C@@H]2CC[C@H]([C@H](O)c3ccccc3)N2)cc1)C1CCc2sc(Br)nc21` (single isomer, unassigned) [Example 144], 1 to 10 nM.
In the case of `COc1ncncc1C(C)C(=O)Nc1ccc(C[C@@H]2CC[C@H]([C@H](O)c3ccccc3)N2)cc1` (single isomer, unassigned) [Example 213], the EC50 lay in the range of 11 to 100 nM.
Consider `CC(C(=O)Nc1ccc(C[C@@H]2CC[C@H]([C@H](O)c3ccccc3)N2)cc1)n1nccn1` (single isomer, unassigned) [Example 179], for which the EC50 is 1 to 10 nM.
On the same count and under the same terms, in the case of `O=C(Nc1ccc(C[C@@H]2CC[C@H]([C@H](O)c3ccccc3)N2)cc1)C1CCCn2ccnc21` (single isomer, unassigned) [Example 155] it was 101 to 1000 nM; in that of `Cc1nnc2n1CCC2C(=O)Nc1ccc(C[C@@H]2CC[C@H]([C@H](O)c3ccccc3)N2)cc1` (single isomer, unassigned) [Example 125], 1 to 10 nM; in that of `CC(C(=O)Nc1ccc(C[C@@H]2CC[C@H]([C@H](O)c3ccccc3)N2)cc1)c1ccccn1` (single isomer, unassigned) [Example 205], 1 to 10 nM.
The same measure, in the same setting: in the case of `O=C(Nc1ccc(C[C@@H]2CC[C@H]([C@H](O)c3ccccc3)N2)cc1)C1CCn2nnnc21` (single isomer, unassigned) [Example 130] it was 1 to 10 nM; in that of `CC(C(=O)Nc1ccc(CC2CCC(C(O)c3ccccc3)N2)cc1)c1ccn(C)n1` (single isomer, unassigned) [Example 186], 101 to 1000 nM; in that of `O=C(Nc1ccc(C[C@@H]2CC[C@H]([C@H](O)c3ccccc3)N2)cc1)C1CCCc2ccnn21` (single isomer, unassigned) [Example 156], 1 to 10 nM.

Staying with this experiment, now noted: Table 7; β3AR-cAMP; read-out: Human β3 Functional.
Regarding `O=S(=O)(Cc1ccccn1)Nc1ccc(C[C@@H]2CC[C@H]([C@H](O)c3ccccc3)N2)cc1` [Example 248], the EC50 was in the range of 101 to 1000 nM.

The same experiment, now with this note: Table 8; read-out: Human β3 Functional.
`CN(Cc1cscn1)C(=O)Nc1ccc(C[C@@H]2CC[C@H]([C@H](O)c3ccccc3)N2)cc1` [Example 253]: the EC50 was in the range of 11 to 100 nM.

Staying with this experiment, now noted: Table 9; read-out: Human β^3 Functional.
Take `CC(NC(=O)c1ccccc1)C(=O)Nc1ccc(C[C@@H]2CC[C@H]([C@H](O)c3ccccc3)N2)cc1` (stereo partly drawn) [Example 272]: the EC50 was less than 1 nM.
Turning to `CC(NC(=O)c1ncccn1)C(=O)Nc1ccc(C[C@@H]2CC[C@H]([C@H](O)c3ccccc3)N2)cc1` (stereo partly drawn) [Example 268], the EC50 was less than 1 nM.
Regarding `CC(NC(=O)c1cnccn1)C(=O)Nc1ccc(C[C@@H]2CC[C@H]([C@H](O)c3ccccc3)N2)cc1` (stereo partly drawn) [Example 269], the EC50 fell in the range of 1 to 10 nM.

The experiment is the same for the next values; noted with them: Table 11; read-out: Human β3 Functional.
Regarding `CC(C(=O)Nc1ccc(CC2CCC(C(O)c3ccc(F)cc3)N2)cc1)c1cscn1` (single isomer, unassigned) [Example 286], the EC50 is less than 1 nM.
On to `Nc1nc2c(s1)CCC2C(=O)Nc1ccc(CC2CCC(C(O)c3ccc(F)cc3)N2)cc1` (single isomer, unassigned) [Example 282], for which the EC50 lay within 11 to 100 nM.

Still in this experiment, the particulars now being: given as a range; cAMP, CHO cells; read-out: human β3 functional activity.
As to `Nc1nc(CC(=O)Nc2ccc(C[C@H]3CC[C@H]([C@H](O)c4ccccc4)N3)cc2)cs1` [Example 3, 2-(2-Amino-1,3-thiazol-4-yl)-N-[4-({(2R,5R)-[(R)hydroxy(phenyl)methyl]pyrrolidinyl}methyl)phenyl]acetamide], the EC50 is 11 to 100 nM.

The same experiment, now with this note: human β3 functional activity, shown as ranges; Table 13; read-out: Human β3 Functional.
In the case of `CC(C(=O)Nc1ccc(CC2CCC(C(O)c3cccc(Cl)c3)N2)cc1)c1cscn1` (single isomer, unassigned) [Example 303], the EC50 was 11 to 100 nM.
Still for that read-out and setting: for `O=C(Nc1ccc(CC2CCC(C(O)c3cccc(Cl)c3)N2)cc1)C1CCc2sc(Br)nc21` (single isomer, unassigned) [Example 298] the value was less than 1 nM.
